Experiments:
[1] = biological target: T1, human 11betaHSD1 (Homo sapiens, UniProt P28845); experiment: Human Hek Assay: cortisone to cortisol conversion in HEK-293 cells stably transfected with human 11betaHSD1, cortisol by ELISA; format: cell-based; settings: HEK-293 cells transfected with human 11betaHSD1; 100 nM cortisone, 1 hour; read-out: humHEK (IC50)
T1 construct: stably transfected with full-length human 11betaHSD1 cDNA; expressed in transfected cells; host or cells: HEK-293
Description: HEK-293 cells stably transfected with full-length human 11betaHSD1 cDNA were propagated and expanded in DMEM high glucose media (Invitrogen Cat# 11995-065), supplemented with 10% FCS (Invitrogen Cat# 10082-147), pen/strep (10 μg/mL), and geneticin (10 μg/mL). One day prior to assay, cells were released from flasks using trypsin/EDTA, centrifuged, and washed with plating media (DMEM high glucose, without phenol red; Invitrogen Cat# 21063-029, supplemented with 2% charcoal stripped FCS; Gemini Cat# A22311P). From a 250,000 cells/mL suspension in plating media, 200 μL of cells were seeded into each well of a 96-well coated plate (BioCoat Cat#356461) and cultured overnight at 37° C. The following day, serially diluted 11betaHSD1 inhibitor compounds dissolved in DMSO were added to plating media supplemented with BSA (2 mg/mL final). The final DMSO concentration was 1%. Media was aspirated from plates, and compounds in media were added to each well. The plates were incubated at 37 degrees C. for 1 hour to allow for cellular uptake of compounds. 10 μL of substrate (cortisone) was then added to each well (100 nM final concentration) and incubated for 1 hour at 37 degrees C. Plates were then transferred to ice and 80 μL of media transferred to a 96-well plate and stored at −30° C.
Quantitation of cortisol in cell media was performed by competitive ELISA using ELISA-Light (Tropix Cat# T10206/EL100S4), anti-cortisol EIA antibody (Assay Designs, Inc. Cat#80-1148), and cortisol-enzyme conjugate (Assay Designs, Inc. Cat# 80-1147). 384-well plates (Falcon Cat#3988) were precoated with anti-mouse IgG (Sigma Cat# M-1397) suspended in 0.9% NaCl (5 mg/mL), 50 μL per well, overnight at 4 degrees C. Plates were washed with PBS, 0.1% Tween-20, then washed with PBS alone. Plates were blocked with Blocking Buffer (Tropix Cat# AI075) for 2 hours at room temperature. The plates were then washed as previously described. Assay samples were thawed, diluted 1:4 in DMEM, 2 mg/mL BSA, 1% DMSO, and 24 μL was transferred to wells of a pre-coated 384-well plate, as well as varying amounts of cortisol standard. To each well, 12 μL of cortisol-conjugate and 12 μL of anti-cortisol EIA antibody were added and incubated 2 hrs at room temperature on a orbital plate shaker. The wells were then emptied by inversion, then washed three times with 100 μL of Wash Buffer (Tropix), and then 2 times with 100 μL of Assay Buffer (Tropix). 60 μL of CDP-STAR (Tropix) was added to each well and incubated 10 minutes at room temperature. Chemiluminescence was measured using a Victor V Reader (Perkin Elmer). Cortisol in each sample was interpolated from a standard curve generated with known amounts of cortisol. IC50 values were calculated using the curve fitting software XLFit3 (IDBS).

[2] = biological target: T2, human 11-β-HSD1 (Homo sapiens, UniProt P28845); experiment: Human H4IIE Assay: steroid conversion assay in H4IIe cells stably transfected with human 11-β-HSD1 cDNA, cortisol by ELISA; format: cell-based; settings: H4IIe cells transfected with human 11-β-HSD1; 200 nM cortisone, 120 minutes; read-out: HumH4IIe (IC50)
T2 construct: expressed in transfected cells; host or cells: H4IIe
T2 sequence (P28845 whole entry): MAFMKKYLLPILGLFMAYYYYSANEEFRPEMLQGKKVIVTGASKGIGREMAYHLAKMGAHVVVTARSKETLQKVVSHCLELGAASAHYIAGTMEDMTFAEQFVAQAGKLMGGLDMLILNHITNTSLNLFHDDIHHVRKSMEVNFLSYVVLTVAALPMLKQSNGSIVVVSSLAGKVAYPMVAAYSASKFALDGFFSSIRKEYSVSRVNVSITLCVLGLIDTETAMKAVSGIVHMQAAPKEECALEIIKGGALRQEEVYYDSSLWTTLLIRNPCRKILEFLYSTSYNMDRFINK
Description: H4IIe cells stably transfected with the human 11-β-HSD1 cDNA (humH4IIe) were maintained in Dulbeccos Modified Essential Medium (DMEM)+10% fetal bovine serum (FBS) containing Penicillin (100 IU/ml) and Streptomycin (100 μg/ml), Geneticin (800 μg/ml) and L-Glutamine (2 mM) at 37° C. in a humidified atmosphere (95% air, 5% CO2).
humH4IIe cells at 80% confluence in a 225 cm^2 flask were washed with PBS then detached with warm Trypsin/EDTA. The cells were counted and resuspended in Dulbeccos Modified Essential Medium lacking phenol red (DMEM) containing 2% stripped serum, at a concentration of 100,000 cells per 200 μl, and plated in a 96-well cell culture plate (precoated with Poly-Lysine). The cells were incubated overnight at 37° C. in a humidified atmosphere (95% air, 5% CO2).
Conversion assays were performed one day after seeding 96-well plates. The media was removed and replaced with 100 ul Dulbeccos Modified Essential Medium without phenol red (DMEM) containing 2 mg/ml Bovine Serum Albumin (BSA)+1% DMSO or test compound dissolved in DMSO.
The cells were incubated with test compound for 60 minutes at 37° C. in a humidified atmosphere (95% air, 5% CO2). After 60 minutes, cortisone was added to 200 nM final, and the cells were incubated for 120 minutes at 37° C. in a humidified atmosphere (95% air, 5% CO2).
The reaction was stopped by transferring 80 μl of media to an empty 96-well plate. Samples were stored at −20° C. until assayed for cortisol concentration using an ELISA method.

T1 sequence (P28845 whole entry): as above

Compound: CC(C)(C)n1ncc(C(=O)N[C@H]2C3CC4CC2C[C@](O)(C4)C3)c1-n1cccn1 [Example 35, trans-2′-tert-Butyl-2′H-[1,3′]bipyrazolyl-4′-carboxylic acid (5-hydroxy-adamantan-2-yl)-amide]
- IC50 [1]: 20 nM
- IC50 [2]: 0.5 nM

Compound: Cn1ncc(C(=O)N[C@H]2C3CC4CC2C[C@](O)(C4)C3)c1-n1cccc1 [Example 2, trans-1-Methyl-5-pyrrol-1-yl-1H-pyrazole-4-carboxylic acid (5-hydroxy-adamantan-2-yl)-amide]
- IC50 [1]: 22.2 nM

Compound: CC(C)(C)n1ncc(C(=O)N[C@H]2C3CC4CC2C[C@](O)(C4)C3)c1Cl [Example 34, trans-1-tert-Butyl-5-chloro-1H-pyrazole-4-carboxylic acid (5-hydroxy-adamantan-2-yl)-amide]
- IC50 [1]: 19.2 nM
- IC50 [2]: 5.6 nM

Compound: CC(C)(C)n1ncc(C(=O)N[C@H]2C3CC4CC2C[C@@](O)(C4)C3)c1C(F)(F)F [Example 8, cis-1-tert-butyl-5-trifluoromethyl-1H-pyrazole-4-carboxylic acid (5-hydroxy-adamantan-2-yl)-amide]
- IC50 [1]: 20.2 nM

Compound: CC(C)(C)OCCn1ncc(C(=O)N[C@H]2C3CC4CC2C[C@](O)(C4)C3)c1C(F)(F)F [Example 77, trans-1-(2-tert-Butoxyethyl)-5-trifluoromethyl-1H-pyrazole-4-carboxylic acid (5-hydroxy-adamantan-2-yl)-amide]
- IC50 [2]: 4.6 nM

Compound: Cn1ncc(C(=O)NC2C3CC4CC(C3)CC2C4)c1N1CCOCC1 (stereo not shown) [Example 22, 1-methyl-5-morpholin-4-yl-1H-pyrazole-4-carboxylic acid adamantan-2-ylamide]
- IC50 [1]: 16.6 nM

Compound: CC(C)(C)n1ncc(C(=O)N[C@H]2C3CC4CC2C[C@](O)(C4)C3)c1C(F)(F)F [Example 7, trans-1-tert-butyl-5-trifluoromethyl-1H-pyrazole-4-carboxylic acid (5-hydroxy-adamantan-2-yl)-amide]
- IC50 [1]: 601 nM

Compound: trans-2′-Methyl-2′H-[1,3′]bipyrazolyl-4′-carboxylic acid (5-acetylamino-adamantan-2-yl)-amide [Example 45]
- IC50 [1]: 48.2 nM
- IC50 [2]: 5.9 nM

Compound: CC(=O)NC12CC3CC(C1)C(NC(=O)c1cnn(C(C)(C)C)c1C(F)(F)F)C(C3)C2 (stereo not drawn) [Example 48, trans-1-tert-Butyl-5-trifluoromethyl-1H-pyrazole-4-carboxylic acid (5-acetylamino-adamantan-2-yl)-amide]
- IC50 [1]: 18.1 nM
- IC50 [2]: 0.3 nM

Compound: CC(=O)NC12CC3CC(C1)C(NC(=O)c1cnn(C(C)(C)C)c1Cl)C(C3)C2 (stereo not drawn) [Example 46, trans-1-tert-Butyl-5-chloro-1H-pyrazole-4-carboxylic acid (5-acetylamino-adamantan-2-yl)-amide]
- IC50 [1]: 66.2 nM
- IC50 [2]: 8.5 nM

Compound: Cn1ncc(C(=O)NC2C3CC4CC2CC(NS(C)(=O)=O)(C4)C3)c1-n1cccn1 (stereo not drawn) [Example 53, trans-2′-Methyl-2′H-[1,3′]bipyrazolyl-4′-carboxylic acid (5-methanesulfonylamino-adamantan-2-yl)-amide]
- IC50 [1]: 76.9 nM
- IC50 [2]: 6 nM

Compound: Cn1ncc(C(=O)NC2C3CC4CC2CC(O)(C4)C3)c1-n1cccc1 (stereo not shown) [Example 1, 1-methyl-5-pyrrol-1-yl-1H-pyrazole-4-carboxylic acid (5-hydroxy-adamantan-2-yl)-amide]
- IC50 [1]: 39.9 nM

Compound: CC(C)(C)n1ncc(C(=O)NC2C3CC4CC(C3)CC2C4)c1C(F)(F)F (stereo not shown) [Example 6, 1-tert-butyl-5-trifluoromethyl-1H-pyrazole-4-carboxylic acid adamantan-2-ylamide]
- IC50 [1]: 9.8 nM

Compound: COCCN(C)c1c(C(=O)NC2C3CC4CC(C3)CC2C4)cnn1C (stereo not shown) [Example 32, 5-[(2-Methoxy-ethyl)-methyl-amino]-1-methyl-1H-pyrazole-4-carboxylic acid adamantan-2-ylamide]
- IC50 [1]: 26.2 nM

Compound: Cn1ncc(C(=O)N[C@H]2C3CC4CC2C[C@](O)(C4)C3)c1-n1cccn1 [Example 9, trans-2′-Methyl-2′H-[1,3′]bipyrazolyl-4′-carboxylic acid (5-hydroxy-adamantan-2-yl)-amide]
- IC50 [1]: 38.6 nM

Compound: Cn1ncc(C(=O)NC2C3CC4CC(C3)CC2C4)c1Cl (stereo not shown) [Example 5, 5-Chloro-1-methyl-1H-pyrazole-4-carboxylic acid adamantan-2-ylamide]
- IC50 [1]: 189 nM

Compound: COCCNc1c(C(=O)NC2C3CC4CC(C3)CC2C4)cnn1C (stereo not shown) [Example 23, 5-(2-Methoxy-ethylamino)-1-methyl-1H-pyrazole-4-carboxylic acid adamantan-2-ylamide]
- IC50 [1]: 71.5 nM

Compound: CC(=O)NC12CC3CC(C1)C(NC(=O)c1cnn(C(C)(C)C)c1-n1cccn1)C(C3)C2 (stereo not drawn) [Example 50, trans-2′-tert-Butyl-2′H-[1,3′]bipyrazolyl-4′-carboxylic acid (5-acetylamino-adamantan-2-yl)-amide]
- IC50 [1]: 23.8 nM
- IC50 [2]: 8 nM

Compound: O=C(NC1C2CC3CC(C2)CC1C3)c1cnn(C2CC2)c1C(F)(F)F (stereo not shown) [Example 12, 1-cyclopropyl-5-trifluoromethyl-1H-pyrazole-4-carboxylic acid adamantan-2-ylamide]
- IC50 [1]: 22.2 nM

Compound: CN1CCN(c2c(C(=O)NC3C4CC5CC(C4)CC3C5)cnn2C)CC1 (stereo not shown) [Example 14, 1-Methyl-5-(4-methyl-piperazin-1-yl)-1H-pyrazole-4-carboxylic acid adamantan-2-ylamide]
- IC50 [1]: 23.3 nM

Compound: CC(C)(C)n1ncc(C(=O)NC2C3CC4CC(C3)CC2C4)c1-n1cccn1 (stereo not shown) [Example 33, 2′-tert-Butyl-2′H-[1,3′]bipyrazolyl-4′-carboxylic acid adamantan-2-ylamide]
- IC50 [1]: 6.8 nM

Compound: COCCOCCn1ncc(C(=O)N[C@H]2C3CC4CC2C[C@](O)(C4)C3)c1-n1cccn1 [Example 76, trans-2′-[2-(2-Methoxyethoxy)-ethyl]-2′H-[1,3′]bipryazolyl-4′-carboxylic acid (5-hydroxyadamantan-2-yl)-amide]
- IC50 [2]: 15.3 nM

Compound: trans-2′-(2-Methoxyethyl)-2′H-[1,3′]bipyrazolyl-4′-carboxylic acid (5-hydroxy-adamantan-2-yl-amide [Example 73]
- IC50 [1]: 22.9 nM
- IC50 [2]: 0.6 nM
